The values that follow come from patent publication US12415785B2, “Compound modulators of sting” (CTXT PTY LTD, priority 2019, dated 2025).

Assay [1] addresses WT human STING isoform (THP-1-Dual KI-hSTING-R232 cells) (Homo sapiens (Human), UniProt Q86WV6, H232R). Nature of the assay: THP-1-Dual KI-hSTING-R232 reporter cell line assay. It is filed as cell-based. Conditions: 24 h incubation, QUANTI-Luc luminescence. Here is the method: (§1) THP-1 STING Lucia ISG cells (InvivoGen #thpI-isg) were cultured in RPMI-1640 containing 2 mM L-glutamine, 25 mM HEPES, 100 μg/mL Normocin (InvivoGen) and 10% heat-inactivated FBS. Cells were seeded at a density of 7×10^5 cells/mL, maintained at 37° C./5% CO2, and passaged every 3-4 days. Selection pressure was maintained by the addition of 100 μg/mL Zeocin every second passage.
(§2) Assay conditions: cells were harvested and resuspended at a concentration of 5×10^5 cells/mL in fresh growth media. Of this cell preparation 20 μL per well was dispensed into 384 well cell culture plates (Greiner, #781098X) and incubated at 37° C./5% CO2 for 2 hours. Concentration Response Curves (commonly 11 doses) were prepared by 2.5 fold serial dilution starting from 10 mM compound stock solution in DMSO. Compound dilutions were transferred into the cell culture plates using a pintool (0.1 μL transfer), control wells were matched for DMSO. Positive control wells received ML RR—S2 CDA (Med Chem Express HY12885B) in 5 μL of media to a final concentration of 40 μM. All other wells received additional 5 μL of media only to equalise volume. The plates were incubated for 24 h at 37° C./5% CO2.
(§3) For the detection step, QUANTI-Luc (InvivoGen #rep-qlc1) was prepared according to manufacturer's instruction and 10 μL were added per well to the culture plates. Plates were shaken for ten seconds on an orbital shaker and left in the dark at room temperature for two minutes, before luminescence was read on a Perkin Elmer Envision plate reader.
(§4) Data analysis: Luminescence raw data was normalised % activity relative to the signal of the positive control wells and negative control wells which were not treated with compound. The following formula was used to calculate normalised % activity from raw signals: % activity=(sample−negative)/(positive−negative)
(§5) The THP-1 STING Lucia ISG cell EC50 provides an assessment of activity at the human HAQ isoform of STING. For assessing compound activity against the WT human STING isoform, an equivalent method was conducted where the cells used were THP-1-Dual KI-hSTING-R232 (InvivoGen #thpd-r232).

For assay [2], the target named is human HAQ isoform of STING (THP-1 STING Lucia ISG cells) (Homo sapiens (Human), UniProt Q86WV6, G230A/H232R/R293Q/R71H). In words: THP-1 STING Lucia ISG reporter cell line assay. Conditions: 24 h incubation, QUANTI-Luc luminescence. It is filed as cell-based. Here is the method: as §1, §2, §3, §4, §5
Chain of human HAQ isoform of STING (THP-1 STING Lucia ISG cells) (Q86WV6 whole entry R71H/G230A/H232R/R293Q, canonical isoform): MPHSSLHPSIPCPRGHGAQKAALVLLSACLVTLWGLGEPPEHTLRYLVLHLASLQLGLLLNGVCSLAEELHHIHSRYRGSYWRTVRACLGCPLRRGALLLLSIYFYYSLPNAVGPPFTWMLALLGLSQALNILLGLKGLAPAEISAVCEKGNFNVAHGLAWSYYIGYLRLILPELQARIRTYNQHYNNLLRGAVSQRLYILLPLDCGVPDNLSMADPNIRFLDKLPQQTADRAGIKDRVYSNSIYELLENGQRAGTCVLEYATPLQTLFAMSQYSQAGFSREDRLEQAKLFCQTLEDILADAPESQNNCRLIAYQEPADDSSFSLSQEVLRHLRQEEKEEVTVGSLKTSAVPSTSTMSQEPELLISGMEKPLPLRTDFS

A word on the EC50: it is the concentration giving half of the maximal effect. The low end stands for a more potent agent, the high end for a less potent agent.

Chain of WT human STING isoform (THP-1-Dual KI-hSTING-R232 cells) (Q86WV6 whole entry H232R, canonical isoform): as the sequence (Q86WV6 whole entry R71H/G230A/H232R/R293Q, canonical isoform) above, with H71R, A230G, Q293R counted along it

As for `COc1c(C(N)=O)ccc2c1nc(-c1ccc(Cl)cc1-c1noc(=O)[nH]1)n2CCn1c(-c2ccc(Cl)cc2-c2noc(=O)[nH]2)nc2c(OC)c(C(N)=O)ccc21` [Example 32, 1,1′-(Ethane-1,2-diyl)bis(2-(4-chloro-2-(5-oxo-4,5-dihydro-1,2,4-oxadiazol-3-yl)phenyl)-4-methoxy-1H-benzo[d]imidazole-5-carboxamide)], the EC50 in assay [1] is 29700 nM; in assay [2], over 40000 nM.
The corresponding values for `COc1c(C(N)=O)ccc2c1nc(-c1c(F)cc(Cl)cc1Br)n2CCn1c(-c2c(F)cc(Cl)cc2Br)nc2c(OC)c(C(N)=O)ccc21` [Example 45, 1,1′-(Ethane-1,2-diyl)bis(2-(2-bromo-4-chloro-6-fluorophenyl)-4-methoxy-1H-benzo[d]imidazole-5-carboxamide)] are 3250 nM and 6790 nM.
Regarding `COc1c(C(N)=O)ccc2c1nc(-c1cc(Cl)ccc1-c1nn[nH]n1)n2CCn1c(-c2cc(Cl)ccc2-c2nn[nH]n2)nc2c(OC)c(C(N)=O)ccc21` [Example 42, 1,1′-(Ethane-1,2-diyl)bis(2-(5-chloro-2-(2H-tetrazol-5-yl)phenyl)-4-methoxy-1H-benzo[d]imidazole-5-carboxamide)], the figures for the EC50 in assay [1] and in assay [2] were 4390 nM and 3210 nM, respectively.
`COc1c(C(N)=O)ccc2c1nc(-c1c(F)cc(F)cc1-c1n[nH]c(=O)o1)n2CCn1c(-c2c(F)cc(F)cc2-c2n[nH]c(=O)o2)nc2c(OC)c(C(N)=O)ccc21` [Example 44, 1,1′-(Ethane-1,2-diyl)bis(2-(2,4-difluoro-6-(5-oxo-4,5-dihydro-1,3,4-oxadiazol-2-yl)phenyl)-4-methoxy-1H-benzo[d]imidazole-5-carboxamide)]: the results for the EC50 in assay [1] and in assay [2] were 380 nM and 558 nM, respectively.
The corresponding values for `NC(=O)c1ccc2c(c1)nc(-c1ccccc1-c1nn[nH]n1)n2CCn1c(-c2ccccc2-c2nnn[nH]2)nc2cc(C(N)=O)ccc21` [Example 5, 2-(2-(1H-Tetrazol-5-yl)phenyl)-1-(2-(2-(2-(2H-tetrazol-5-yl)phenyl)-5-carbamoyl-1H-benzo[d]imidazol-1-yl)ethyl)-1H-benzo[d]imidazole-5-carboxamide] are 6400 nM and 24800 nM.
As for `COc1c(C(N)=O)ccc2c1nc(-c1cc(C)ccc1C(=O)O)n2CCn1c(-c2cc(C)ccc2C(=O)O)nc2c(OC)c(C(N)=O)ccc21` [Example 26, 2,2′-(Ethane-1,2-diylbis(5-carbamoyl-4-methoxy-1H-benzo[d]imidazole-1,2-diyl))bis(4-methylbenzoic acid)], the EC50 in assay [1] stood at 3220 nM; in assay [2] it was 3380 nM.
On the same counts, the results for `COc1ccc(-c2nc3c(OC)c(C(N)=O)ccc3n2CCn2c(-c3ccc(OC)cc3C(=O)O)nc3c(OC)c(C(N)=O)ccc32)c(C(=O)O)c1` [Example 41, 6,6′-(Ethane-1,2-diylbis(5-carbamoyl-4-methoxy-1H-benzo[d]imidazole-1,2-diyl))bis(3-methoxybenzoic acid)] are over 40000 nM and over 40000 nM.
The corresponding values for `COc1c(C(N)=O)ccc2c1nc(-c1c(F)cccc1-c1n[nH]c(=O)o1)n2CCn1c(-c2c(F)cccc2-c2n[nH]c(=O)o2)nc2c(OC)c(C(N)=O)ccc21` [Example 49, 1,1′-(Ethane-1,2-diyl)bis(2-(2-fluoro-6-(5-oxo-4,5-dihydro-1,3,4-oxadiazol-2-yl)phenyl)-4-methoxy-1H-benzo[d]imidazole-5-carboxamide)] are 191 nM and 136 nM.
On the same counts, the results for `COc1c(C(N)=O)ccc2c1nc(-c1c(F)cc(F)cc1-c1nn[nH]n1)n2CCn1c(-c2c(F)cc(F)cc2-c2nn[nH]n2)nc2c(OC)c(C(N)=O)ccc21` [Example 43, 1,1′-(Ethane-1,2-diyl)bis(2-(2,4-difluoro-6-(2H-tetrazol-5-yl)phenyl)-4-methoxy-1H-benzo[d]imidazole-5-carboxamide)] are 440 nM and 574 nM.
As for `NC(=O)c1ccc2c(c1)nc(-c1ccccc1C(=O)O)n2CCn1c(-c2ccccc2C(=O)O)nc2cc(C(N)=O)ccc21` [Example 2, 2,2′-(Ethane-1,2-diylbis(5-carbamoyl-1H-benzo[d]imidazole-1,2-diyl))dibenzoic acid], the EC50 in assay [1] and in assay [2] was over 40000 nM throughout.
As for `COc1c(C(N)=O)ccc2c1nc(-c1c(Cl)cccc1C(=O)O)n2CCn1c(-c2c(Cl)cccc2C(=O)O)nc2c(OC)c(C(N)=O)ccc21` (racemic) [Example 22, 2,2′-(Ethane-1,2-diylbis(5-carbamoyl-4-methoxy-1H-benzo[d]imidazole-1,2-diyl))bis(3-chlorobenzoic acid)], the EC50 in assay [1] came out at 1450 nM; in assay [2], 1530 nM.
Regarding `COc1c(C(N)=O)ccc2c1nc(-c1c(F)cc(F)cc1C(=O)O)n2CCn1c(-c2c(F)cc(F)cc2C(=O)O)nc2c(OC)c(C(N)=O)ccc21` [Example 16, 2,2′-(Ethane-1,2-diylbis(5-carbamoyl-4-methoxy-1H-benzo[d]imidazole-1,2-diyl))bis(3,5-difluorobenzoic acid)], the EC50 stood at 840 nM in assay [1] and 738 nM in assay [2].
The corresponding values for `COc1c(C(N)=O)ccc2c1nc(-c1ccc(Cl)cc1-c1cn[nH]n1)n2CCn1c(-c2ccc(Cl)cc2-c2cn[nH]n2)nc2c(OC)c(C(N)=O)ccc21` [Example 24, 1,1′-(Ethane-1,2-diyl)bis(2-(4-chloro-2-(2H-1,2,3-triazol-4-yl)phenyl)-4-methoxy-1H-benzo[d]imidazole-5-carboxamide)] are 4190 nM and 2670 nM.
Consider `COc1c(C(N)=O)ccc2c1nc(-c1cnccc1C(=O)O)n2CCn1c(-c2cnccc2C(=O)O)nc2c(OC)c(C(N)=O)ccc21` [Example 30, 3,3′-(Ethane-1,2-diylbis(5-carbamoyl-4-methoxy-1H-benzo[d]imidazole-1,2-diyl))diisonicotinic acid], for which the results for the concentration for a half-maximal effect (EC50) in assay [1] and in assay [2] were 28900 nM and 39100 nM, respectively.
On the same counts, the results for `COc1c(C(N)=O)ccc2c1nc(-c1ccccc1C(=O)O)n2CCn1c(-c2ccccc2C(=O)O)nc2c(OC)c(C(N)=O)ccc21` [Example 4, 2,2′-(Ethane-1,2-diylbis(5-carbamoyl-4-methoxy-1H-benzo[d]imidazole-1,2-diyl))dibenzoic acid] are 32500 nM and 15900 nM.
On the same counts, the results for `COc1c(C(N)=O)ccc2c1nc(-c1cccc(Cl)c1-c1nn[nH]n1)n2CCn1c(-c2cccc(Cl)c2-c2nn[nH]n2)nc2c(OC)c(C(N)=O)ccc21` [Example 40, 1,1′-(Ethane-1,2-diyl)bis(2-(3-chloro-2-(2H-tetrazol-5-yl)phenyl)-4-methoxy-1H-benzo[d]imidazole-5-carboxamide)] are over 40000 nM and over 40000 nM.
Take `COc1c(C(N)=O)ccc2c1nc(-c1c(F)cccc1-c1nn[nH]n1)n2CCn1c(-c2c(F)cccc2-c2nn[nH]n2)nc2c(OC)c(C(N)=O)ccc21` [Example 48, 1,1′-(Ethane-1,2-diyl)bis(2-(2-fluoro-6-(2H-tetrazol-5-yl)phenyl)-4-methoxy-1H-benzo[d]imidazole-5-carboxamide)]: the results for the EC50 in assay [1] and in assay [2] were 269 nM and 415 nM, respectively.
On the same counts, the results for `COc1c(C(N)=O)ccc2c1nc(-c1c(F)cc(Cl)cc1-c1n[nH]c(=O)o1)n2CCn1c(-c2c(F)cc(Cl)cc2-c2n[nH]c(=O)o2)nc2c(OC)c(C(N)=O)ccc21` [Example 50, 1,1′-(Ethane-1,2-diyl)bis(2-(4-chloro-2-fluoro-6-(5-oxo-4,5-dihydro-1,3,4-oxadiazol-2-yl)phenyl)-4-methoxy-1H-benzo[d]imidazole-5-carboxamide)] are 31.2 nM and 174 nM.
On to `COc1c(C(N)=O)ccc2c1nc(-c1c(Cl)cccc1-c1nn[nH]n1)n2CCn1c(-c2c(Cl)cccc2-c2nn[nH]n2)nc2c(OC)c(C(N)=O)ccc21` (single isomer, unassigned) [Example 23, 1,1′-(Ethane-1,2-diyl)bis(2-(2-chloro-6-(2H-tetrazol-5-yl)phenyl)-4-methoxy-1H-benzo[d]imidazole-5-carboxamide)], for which the EC50 in assay [1] was 2470 nM; in assay [2], 2500 nM.
The corresponding values for `COc1c(C(N)=O)ccc2c1nc(-c1ccc(Cl)cc1-c1nn[nH]n1)n2CCn1c(-c2ccc(Cl)cc2-c2nn[nH]n2)nc2c(OC)c(C(N)=O)ccc21` [Example 9, 1,1′-(Ethane-1,2-diyl)bis(2-(4-chloro-2-(2H-tetrazol-5-yl)phenyl)-4-methoxy-1H-benzo[d]imidazole-5-carboxamide)] are 715 nM and 777 nM.
